This note sets out measurements from ChEMBL document CHEMBL4673209, “Discovery of a novel potent GPR40 full agonist” (Bioorg Med Chem Lett, 2018).

As a reminder, the pEC50 is the negative decadic logarithm of the EC50, by convention in mol/L.

pEC50: −log10 of the molar value. Calls of active or inactive are those of the source. The calls are words filed in the database; no cut-off is given here.

Assay [1] has as its target T1, Free fatty acid receptor 1 (Homo sapiens, UniProt O14842). Description: Agonist activity at human GPR40 transfected in HEK293 cells assessed as increase in intracellular calcium level incubated for 1 hr by Fluo-8 dye based fluorescence analysis. It counts as functional, cell-based. In general terms: Calcium flux is commonly read through the fluorescence of an indicator in the cells.

Assay [2] has as its target Free fatty acid receptor 1 (Rattus norvegicus, UniProt Q8K3T4). The experiment in a line: Agonist activity at rat GPR40 transfected in HEK293 cells assessed as increase in intracellular calcium level incubated for 1 hr by Fluo-8 dye based fluorescence analysis. Format: functional, cell-based.
Assay [3] addresses Free fatty acid receptor 1 (Rattus norvegicus) (UniProt Q8K3T4). The experiment in a line: Agonist activity at GPR40 in rat INS1 (832/13) cells assessed as induction of glucose-stimulated insulin secretion in presence of 10 mM glucose. It counts as cell-based.
The target in assay [4] is T1, Free fatty acid receptor 1. Description: Agonist activity at GPR40 in human islets assessed as induction of glucose-stimulated insulin secretion at 10 uM. Particulars: Pancreatic islet. Format: tissue-based.
Assay [5] is filed under the species Mus musculus. The experiment in a line: Anti-glycemic activity in C57 mouse assessed as reduction in blood glucose excursion measured for 120 mins by IPGTT. Format: functional, organism-based.
Assay [6] concerns Mus musculus. The experiment in a line: In vivo agonist activity at GPR119 in C57 mouse assessed as induction of GLP-1 secretion at 30 mg/kg. It counts as functional, organism-based.
Assay [7] deals with Mus musculus. The experiment in a line: In vivo agonist activity at GPR119 in GPR40 knock-out mouse assessed as induction of GLP-1 secretion at 30 mg/kg. Format: functional, organism-based.
Assay [8] deals with Mus musculus. Description: In vivo agonist activity at GPR40 in C57 mouse assessed as induction of GLP1 secretion at 100 mg/kg. Format: functional, organism-based.
In assay [9] the test system is Mus musculus. Description: Induction of GLP-1 secretion in GPR40 knock-out mouse at 100 mg/kg. Format: functional, organism-based.
The subject of assay [10] is Rattus norvegicus. The experiment in a line: Anti-glycemic activity in fasted Sprague-Dawley ZDF rat assessed as reduction in post-prandial hyperglycemia by measuring AUC(0 to 2 hrs) for blood glucose at 3 mg/kg administered for 1 day and measured on day 1 by OGTT. Format: functional.
The species named for assay [11] is Mus musculus. Description: Anti-glycemic activity in GPR40 knockout mouse assessed as reduction in blood glucose excursion measured for 120 mins by IPGTT. It counts as functional, organism-based.
The subject of assay [12] is Rattus norvegicus. Description: Anti-glycemic activity in fasted Sprague-Dawley ZDF rat assessed as reduction in post-prandial hyperglycemia by measuring AUC(0 to 2 hrs) for blood glucose at 3 mg/kg administered daily for 8 days and measured on day 8 by OGTT. Format: functional. Particulars: time 8 day.
The test system of assay [13] is Rattus norvegicus. Description: Anti-glycemic activity in fasted Sprague-Dawley ZDF rat assessed as increase in insulin secretion by measuring insulin level in plasma at 10 mg/kg administered 30 mins prior to glucose challenge measured after 140 mins by OGTT. It counts as functional. Particulars: time 170 min, 2.833 h.
Assay [14] has as its system Rattus norvegicus. The experiment in a line: Anti-glycemic activity in fasted Sprague-Dawley ZDF rat assessed as reduction in post-prandial hyperglycemia by measuring AUC(0 to 2 hrs) for blood glucose at 10 mg/kg administered daily for 8 days and measured on day 8 by OGTT. It counts as functional. Particulars: time 8 day.
Assay [15] concerns Rattus norvegicus. The experiment in a line: Anti-glycemic activity in fasted Sprague-Dawley ZDF rat assessed as increase in insulin secretion by measuring insulin level in plasma at 3 mg/kg administered 30 mins prior to glucose challenge measured after 140 mins by OGTT. Format: functional. Particulars: time 170 min, 2.833 h.
The subject of assay [16] is Rattus norvegicus. Description: Anti-glycemic activity in fasted Sprague-Dawley ZDF rat assessed as reduction in post-prandial hyperglycemia by measuring AUC(0 to 2 hrs) for blood glucose at 10 mg/kg administered for 1 day and measured on day 1 by OGTT. Format: functional.

T1 sequence (O14842 whole entry): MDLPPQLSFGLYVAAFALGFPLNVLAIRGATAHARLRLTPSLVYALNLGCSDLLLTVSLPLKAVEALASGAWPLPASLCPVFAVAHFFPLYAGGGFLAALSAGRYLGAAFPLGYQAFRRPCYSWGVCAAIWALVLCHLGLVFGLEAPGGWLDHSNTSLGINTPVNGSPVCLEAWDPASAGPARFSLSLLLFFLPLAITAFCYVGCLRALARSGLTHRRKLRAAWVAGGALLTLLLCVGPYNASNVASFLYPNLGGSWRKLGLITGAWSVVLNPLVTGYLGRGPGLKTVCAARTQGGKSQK
Free fatty acid receptor 1 (Rattus norvegicus, UniProt Q8K3T4), sequence (Q8K3T4 whole entry): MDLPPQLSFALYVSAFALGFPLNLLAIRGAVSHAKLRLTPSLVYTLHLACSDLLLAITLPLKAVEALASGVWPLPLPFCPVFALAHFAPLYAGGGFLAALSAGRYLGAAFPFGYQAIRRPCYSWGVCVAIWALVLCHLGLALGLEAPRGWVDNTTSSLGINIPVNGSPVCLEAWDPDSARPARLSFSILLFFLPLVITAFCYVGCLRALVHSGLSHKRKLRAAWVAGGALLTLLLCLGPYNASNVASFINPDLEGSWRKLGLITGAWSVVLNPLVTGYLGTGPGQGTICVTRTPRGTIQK
Free fatty acid receptor 1 (Rattus norvegicus), sequence (Q8K3T4 whole entry): as above

Regarding `COc1cc(-c2ncc(COc3cccc([C@@H](CC(=O)O)C4CC4)c3)nc2C2=CCCC2(C)C)c(F)cn1`, the pEC50 in assay [1] is 7.96.
Consider `COc1ccc(F)c(-c2cnc(COc3cccc([C@@H](CC(=O)O)C4CC4)c3)cc2C2=CCCC2(C)C)c1`, for which the values for the pEC50 in assay [2] and in assay [1] were 7.34 and 7.96, respectively.
With `COc1ccc(F)c(-c2ccc(COc3cccc([C@@H](CC(=O)O)C4CC4)c3)cc2C2=CCCC2(C)C)c1`, the Activity entry in assay [3] (INS-1 832/13, filed as agonist) was “Active”; in [4] (filed as agonist) it was “Active”. The pEC50 was 7.94 in [2] and 8.46 in assay [1].
For `COc1ccc(F)c(-c2ncc(COc3cccc([C@@H](CC(=O)O)C4CC4)c3)nc2C=C(C)C)c1`, the pEC50 in assay [1] was 8.03.
Consider `COc1ccc(Cl)cc1C(=O)NCCc1ccc(S(=O)(=O)NC(=O)NC2CCCCC2)cc1`, for which, in assay [5], the outcome was Active.
For the compound `COc1ccc(F)c(-c2ncc(COc3cccc([C@@H](CC(=O)O)C4CC4)c3)cc2C2=CCCC2(C)C)c1`, the figures for the pEC50 in [2] and in assay [1] were 7.19 and 7.67, respectively.
For the compound `CCCCc1nc(COc2cccc([C@@H](CC(=O)O)C3CC3)c2)cnc1-c1cc(OC)ccc1F`, the pEC50 in assay [2] was 7.55; in assay [1], 8.60.
For the compound `CC(C)OC(=O)N1CCC(Oc2ncnc3c2CCN3c2ccc(S(C)(=O)=O)cc2F)CC1`, the outcome in [6] and in [7] was Active.
Consider `Cc1cc(OCCCS(C)(=O)=O)cc(C)c1-c1cccc(COc2ccc3c(c2)OC[C@H]3CC(=O)O)c1` [FASIGLIFAM], for which the result in assay [8], in [3] (INS-1 832/13), in assay [4], in [9] and in assay [11] was inactive. Also, the Activity in [10] worked out at 12194 ng/mL.hr; in assay [12], 20561 ng/mL.hr; in assay [13] it was 19250 ng/mL; in assay [14] it was 135502 ng/mL.hr; in assay [15], 4020 ng/mL; in assay [16] it was 59293 ng/mL.hr. Besides, the outcome in [5] was Active.
`COc1ccc(F)c(-c2ncc(COc3cccc([C@@H](CC(=O)O)C4CC4)c3)nc2CC(C)(C)C)c1`: the pEC50 in assay [1] (hek293) is 8.70.
For the compound `COc1ccc(F)c(-c2ncc(COc3cccc([C@@H](CC(=O)O)C4CC4)c3)nc2OCC(C)C)c1`, the pEC50 in [1] was 8.02.
In the case of `COc1ccc(F)c(-c2cnc(COc3cccc([C@@H](CC(=O)O)C4CC4)c3)nc2C2=CCCC2(C)C)c1`, the pEC50 in assay [2] is 7.15; in assay [1], 7.91.
In the case of `COc1ccc(F)c(-c2ccc(COc3cccc([C@@H](CC(=O)O)C4CC4)c3)nc2C2=CCCC2(C)C)c1`, the pEC50 in assay [2] is 7.35; in assay [1], 8.03.
Take `COc1ccc(F)c(-c2ncc(COc3cccc([C@@H](CC(=O)O)C4CC4)c3)nc2N2CC3(CCC3)C2)c1`: the pEC50 in [1] was 8.35.
Take `COc1ccc(F)c(-c2ncc(COc3cccc([C@@H](CC(=O)O)C4CC4)c3)nc2C2=CCCC2(C)C)c1`: the pEC50 in assay [2] is 6.70.
With `COc1ccc(F)c(-c2ncc(COc3cccc([C@@H](CC(=O)O)C4CC4)c3)nc2-c2cc(C)cc(C)c2)c1`, in assay [1], the pEC50 was 8.12.
